Data reported in the CheMixHub viscosity set.
± gives the uncertainty stated by the source.

Experiment: xn = mol fraction of the nth substance listed

[Ca+2].[Cl-].[Cl-] + O
Conditions | viscosity [mPa·s]
293.15 K, 101 kPa, x1 = 0.059 | 2.97 ± 0.08
298.15 K, 101 kPa, x1 = 0.000396 | 0.8977 ± 0.019
298.15 K, 101 kPa, x1 = 0.00043 | 0.8982 ± 0.019
298.15 K, 101 kPa, x1 = 0.00081 | 0.9042 ± 0.019
298.15 K, 101 kPa, x1 = 0.000844 | 0.9046 ± 0.019
298.15 K, 101 kPa, x1 = 0.00106 | 0.9082 ± 0.019
298.15 K, 101 kPa, x1 = 0.00107 | 0.9081 ± 0.019
298.15 K, 101 kPa, x1 = 0.00123 | 0.9106 ± 0.019
298.15 K, 101 kPa, x1 = 0.0013 | 0.9117 ± 0.019
298.15 K, 101 kPa, x1 = 0.00147 | 0.9145 ± 0.019
298.15 K, 101 kPa, x1 = 0.00151 | 0.9149 ± 0.019
298.15 K, 101 kPa, x1 = 0.00175 | 0.9186 ± 0.019
298.15 K, 101 kPa, x1 = 0.002367 | 0.9277 ± 0.019
298.15 K, 101 kPa, x1 = 0.002527 | 0.9302 ± 0.019
298.15 K, 101 kPa, x1 = 0.002586 | 0.9311 ± 0.019
298.15 K, 101 kPa, x1 = 0.003329 | 0.9425 ± 0.02
298.15 K, 101 kPa, x1 = 0.003395 | 0.9435 ± 0.02
298.15 K, 101 kPa, x1 = 0.003497 | 0.945 ± 0.02
298.15 K, 101 kPa, x1 = 0.003672 | 0.9476 ± 0.02
298.15 K, 101 kPa, x1 = 0.004546 | 0.9609 ± 0.02
298.15 K, 101 kPa, x1 = 0.004721 | 0.9637 ± 0.02
298.15 K, 101 kPa, x1 = 0.005244 | 0.9719 ± 0.02
298.15 K, 101 kPa, x1 = 0.006244 | 0.9873 ± 0.021
298.15 K, 101 kPa, x1 = 0.007041 | 1 ± 0.021
298.15 K, 101 kPa, x1 = 0.007167 | 1.002 ± 0.021
298.15 K, 101 kPa, x1 = 0.007446 | 1.006 ± 0.021
298.15 K, 101 kPa, x1 = 0.008695 | 1.027 ± 0.021
298.15 K, 101 kPa, x1 = 0.009449 | 1.039 ± 0.022
298.15 K, 101 kPa, x1 = 0.009885 | 1.046 ± 0.022
298.15 K, 101 kPa, x1 = 0.01022 | 1.052 ± 0.022
298.15 K, 101 kPa, x1 = 0.01042 | 1.055 ± 0.022
298.15 K, 101 kPa, x1 = 0.01059 | 1.058 ± 0.022
298.15 K, 101 kPa, x1 = 0.01077 | 1.061 ± 0.022
298.15 K, 101 kPa, x1 = 0.01094 | 1.064 ± 0.022
298.15 K, 101 kPa, x1 = 0.01192 | 1.081 ± 0.023
298.15 K, 101 kPa, x1 = 0.01272 | 1.095 ± 0.023
298.15 K, 101 kPa, x1 = 0.01378 | 1.114 ± 0.023
298.15 K, 101 kPa, x1 = 0.01401 | 1.118 ± 0.023
298.15 K, 101 kPa, x1 = 0.01513 | 1.139 ± 0.024
298.15 K, 101 kPa, x1 = 0.01538 | 1.143 ± 0.024
298.15 K, 101 kPa, x1 = 0.01928 | 1.219 ± 0.025
298.15 K, 101 kPa, x1 = 0.02043 | 1.243 ± 0.026
298.15 K, 101 kPa, x1 = 0.02048 | 1.244 ± 0.026
298.15 K, 101 kPa, x1 = 0.02097 | 1.254 ± 0.026
298.15 K, 101 kPa, x1 = 0.02327 | 1.304 ± 0.027
298.15 K, 101 kPa, x1 = 0.02529 | 1.35 ± 0.028
298.15 K, 101 kPa, x1 = 0.02589 | 1.364 ± 0.028
298.15 K, 101 kPa, x1 = 0.0267 | 1.383 ± 0.029
298.15 K, 101 kPa, x1 = 0.027 | 1.391 ± 0.029
298.15 K, 101 kPa, x1 = 0.02942 | 1.451 ± 0.03
298.15 K, 101 kPa, x1 = 0.02988 | 1.464 ± 0.03
298.15 K, 101 kPa, x1 = 0.03066 | 1.484 ± 0.031
298.15 K, 101 kPa, x1 = 0.03069 | 1.485 ± 0.031
298.15 K, 101 kPa, x1 = 0.0311 | 1.496 ± 0.031
298.15 K, 101 kPa, x1 = 0.03274 | 1.541 ± 0.032
298.15 K, 101 kPa, x1 = 0.03315 | 1.553 ± 0.032
298.15 K, 101 kPa, x1 = 0.03378 | 1.572 ± 0.033
298.15 K, 101 kPa, x1 = 0.03442 | 1.59 ± 0.033
298.15 K, 101 kPa, x1 = 0.03633 | 1.648 ± 0.034
298.15 K, 101 kPa, x1 = 0.03656 | 1.654 ± 0.035
298.15 K, 101 kPa, x1 = 0.03673 | 1.66 ± 0.035
298.15 K, 101 kPa, x1 = 0.03831 | 1.711 ± 0.036
298.15 K, 101 kPa, x1 = 0.03856 | 1.719 ± 0.036
298.15 K, 101 kPa, x1 = 0.04162 | 1.824 ± 0.038
298.15 K, 101 kPa, x1 = 0.04322 | 1.883 ± 0.039
298.15 K, 101 kPa, x1 = 0.04455 | 1.933 ± 0.04
298.15 K, 101 kPa, x1 = 0.04537 | 1.967 ± 0.041
298.15 K, 101 kPa, x1 = 0.04781 | 2.068 ± 0.043
298.15 K, 101 kPa, x1 = 0.04866 | 2.105 ± 0.044
298.15 K, 101 kPa, x1 = 0.0498 | 2.157 ± 0.045
298.15 K, 101 kPa, x1 = 0.0506 | 2.194 ± 0.046
298.15 K, 101 kPa, x1 = 0.0536 | 2.342 ± 0.049
298.15 K, 101 kPa, x1 = 0.05494 | 2.412 ± 0.051
298.15 K, 101 kPa, x1 = 0.05842 | 2.611 ± 0.055
298.15 K, 101 kPa, x1 = 0.06081 | 2.761 ± 0.058
298.15 K, 101 kPa, x1 = 0.06128 | 2.791 ± 0.059
298.15 K, 101 kPa, x1 = 0.065 | 3.054 ± 0.064
298.15 K, 101 kPa, x1 = 0.06579 | 3.114 ± 0.066
298.15 K, 101 kPa, x1 = 0.06654 | 3.173 ± 0.067
298.15 K, 101 kPa, x1 = 0.06668 | 3.182 ± 0.067
298.15 K, 101 kPa, x1 = 0.07055 | 3.515 ± 0.074
298.15 K, 101 kPa, x1 = 0.07902 | 4.414 ± 0.093
298.15 K, 101 kPa, x1 = 0.08019 | 4.563 ± 0.096
298.15 K, 101 kPa, x1 = 0.08048 | 4.6 ± 0.097
298.15 K, 101 kPa, x1 = 0.08806 | 5.733 ± 0.12
298.15 K, 101 kPa, x1 = 0.08818 | 5.754 ± 0.12
298.15 K, 101 kPa, x1 = 0.09192 | 6.437 ± 0.14
298.15 K, 101 kPa, x1 = 0.09327 | 6.707 ± 0.14
298.15 K, 101 kPa, x1 = 0.09562 | 7.209 ± 0.15
298.15 K, 101 kPa, x1 = 0.09975 | 8.198 ± 0.17
298.15 K, 101 kPa, x1 = 0.1012 | 8.586 ± 0.18
298.15 K, 101 kPa, x1 = 0.1071 | 10.34 ± 0.22
298.15 K, 101 kPa, x1 = 0.1099 | 11.29 ± 0.24
298.15 K, 101 kPa, x1 = 0.1131 | 12.5 ± 0.27
298.15 K, 101 kPa, x1 = 0.1167 | 14.03 ± 0.3
298.15 K, 101 kPa, x1 = 0.1168 | 14.08 ± 0.3
298.15 K, 101 kPa, x1 = 0.1185 | 14.84 ± 0.32
298.15 K, 101 kPa, x1 = 0.1243 | 17.82 ± 0.38
298.15 K, 101.3 kPa, x1 = 0.03478 | 1.609 ± 0.034
298.15 K, 101.3 kPa, x1 = 0.05127 | 2.238 ± 0.047
